Test [1] concerns the target Somatostatin receptor. Nature of the test: Inhibitory activity against Somatostatin receptor in rat cortex membrane using 125 I-Tyrs-octreotide as radioligand. The format is cell membranes.
The target in test [2] is Somatostatin receptor. Description: Radioligand binding studies on rat cortex membranes using 125 I-Tyrs-octreotide as ligand was determined.

SMILES strings stand for the structures.

1 molecule from ChEMBL document CHEMBL1126396 (Bioorg Med Chem Lett, 1992) can be followed below.

For the molecule `NCCCCCOCC1OC(OCCc2c[nH]c3ccccc23)C(OCc2ccccc2)C1OCc1ccccc1` (configuration not stated), the “Log Ki” value in test [1] was -4.73. The IC50 in test [2] amounted to 23 µM.

The term IC50 denotes the point on the concentration scale where inhibition reaches its midpoint. Higher therefore signals weaker potency.
